According to PMC5070805 (Journal of medicinal chemistry, 2015):
Where a SMILES comes first, the peptide text is derived from it. Bridges are numbered along the chain shown (N, C = ends). [ ]: non-standard residue; d: D form. Nle = CCCC[C@H](N)C(=O)O

Assays:
hMC1R [1] = molecular target: T1, hMC1R (Homo sapiens, UniProt Q01726); assay: Adenylate cyclase assay; format: cell-based; details: cAMP, text description
hMC3R [2] = molecular target: T2, hMC3R (Homo sapiens, UniProt P41968); assay: Adenylate cyclase assay; format: cell-based; details: cAMP, text description
hMC4R [3] = molecular target: T3, hMC4R (Homo sapiens, UniProt P32245); assay: Adenylate cyclase assay; format: cell-based; details: cAMP, text description
hMC4R [4] = molecular target: T3, hMC4R; assay: Competition binding vs 125I-[Nle4,DPhe7]-α-MSH on whole HEK293 cells; details: text description
hMC5R [5] = molecular target: T4, hMC5R (Homo sapiens, UniProt P33032); assay: as above; details: text description
hMC5R [6] = molecular target: T4, hMC5R; assay: Adenylate cyclase assay; format: cell-based; details: cAMP, text description
hMC1R [7] = molecular target: T1, hMC1R; assay: Competition binding vs 125I-[Nle4,DPhe7]-α-MSH on whole HEK293 cells; details: text description
hMC3R [8] = molecular target: T2, hMC3R; assay: as above; details: text description

T4 sequence (P33032 whole entry): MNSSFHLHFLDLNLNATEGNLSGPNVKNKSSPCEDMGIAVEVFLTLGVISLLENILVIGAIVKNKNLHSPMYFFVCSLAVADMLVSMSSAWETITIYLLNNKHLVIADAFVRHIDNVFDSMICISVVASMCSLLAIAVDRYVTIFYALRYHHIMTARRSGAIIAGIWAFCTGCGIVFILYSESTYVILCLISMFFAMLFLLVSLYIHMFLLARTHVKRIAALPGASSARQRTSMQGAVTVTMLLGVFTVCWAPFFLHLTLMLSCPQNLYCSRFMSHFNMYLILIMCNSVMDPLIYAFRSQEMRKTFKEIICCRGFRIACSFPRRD
T2 sequence (P41968 whole entry): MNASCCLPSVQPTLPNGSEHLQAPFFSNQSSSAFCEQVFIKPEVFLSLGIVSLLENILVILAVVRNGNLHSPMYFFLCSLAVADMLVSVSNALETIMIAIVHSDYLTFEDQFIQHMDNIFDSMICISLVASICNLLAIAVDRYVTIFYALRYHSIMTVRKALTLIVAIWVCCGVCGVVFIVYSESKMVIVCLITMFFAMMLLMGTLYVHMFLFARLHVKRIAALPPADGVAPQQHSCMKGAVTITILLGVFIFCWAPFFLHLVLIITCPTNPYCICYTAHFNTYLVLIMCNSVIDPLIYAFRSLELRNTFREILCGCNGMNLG
T1 sequence (Q01726 whole entry): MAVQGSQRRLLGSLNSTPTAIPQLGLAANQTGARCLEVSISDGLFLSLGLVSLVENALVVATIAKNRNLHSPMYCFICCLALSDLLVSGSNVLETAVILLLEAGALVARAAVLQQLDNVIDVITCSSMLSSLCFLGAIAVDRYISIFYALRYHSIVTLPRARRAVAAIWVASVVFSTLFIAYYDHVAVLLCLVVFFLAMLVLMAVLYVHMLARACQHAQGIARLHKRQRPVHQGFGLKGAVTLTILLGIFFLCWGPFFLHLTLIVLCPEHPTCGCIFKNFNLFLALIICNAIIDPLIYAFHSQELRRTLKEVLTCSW
T3 sequence (P32245 whole entry): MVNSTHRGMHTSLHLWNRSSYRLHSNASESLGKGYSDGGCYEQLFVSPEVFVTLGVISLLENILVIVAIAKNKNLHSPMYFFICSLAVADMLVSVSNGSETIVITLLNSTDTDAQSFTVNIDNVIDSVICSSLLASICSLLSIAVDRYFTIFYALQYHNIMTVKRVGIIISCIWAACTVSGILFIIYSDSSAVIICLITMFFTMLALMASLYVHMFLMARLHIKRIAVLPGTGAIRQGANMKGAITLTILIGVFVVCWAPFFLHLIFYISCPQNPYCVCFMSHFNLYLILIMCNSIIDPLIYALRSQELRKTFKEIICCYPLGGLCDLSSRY

| SMILES | functional activity at hMC1R (in words) (hMC1R [1]) | functional activity at hMC3R (in words) (hMC3R [2]) | functional activity at hMC4R (in words) (hMC4R [3]) | binding at hMC4R (in words) (hMC4R [4]) | binding at hMC5R (in words) (hMC5R [5]) | functional activity at hMC5R (in words) (hMC5R [6]) | binding at hMC1R (in words) (hMC1R [7]) | binding at hMC3R (in words) (hMC3R [8]) |
| --- | --- | --- | --- | --- | --- | --- | --- | --- |
| CCCC[C@H](NC(C)=O)C(=O)N[C@H]1CC(=O)NCCCC[C@@H](C(N)=O)NC(=O)[C@H](Cc2c[nH]c3ccccc23)NC(=O)[C@H](CCCNC(=N)N)NC(=O)[C@@H](Cc2ccccc2)NC(=O)[C@@H]2CCCN2C(=O)[C@@H]2CCCN2C1=O [compound 1, Ac-Nle-c[D-P-P-DPhe-R-W-K]-NH2] (Ac-[Nle]DPP[dF]RWK-NH2; lactam 2-8) | low potency | undetectable activity | undetectable activity | low binding affinity | no appreciable binding | undetectable activity | no appreciable binding | low binding affinity |
| CCCC[C@H](NC(C)=O)C(=O)N[C@H]1CC(=O)NCCCC[C@@H](C(N)=O)NC(=O)[C@H](Cc2c[nH]c3ccccc23)NC(=O)[C@H](CCCNC(=N)N)NC(=O)[C@@H](Cc2ccccc2)NC(=O)[C@@H]2CCCN2C(=O)[C@H](Cc2c[nH]c3ccccc23)NC1=O [compound 3, Ac-Nle-c[D-W-P-DPhe-R-W-K]-NH2] | weak and moderate activation | no stimulation of cAMP accumulation | weak and moderate activation | no affinity | no affinity | weak and moderate activation | no affinity | weak binding |
